Results published in paper PMC8368996, “Interactions between AMOT PPxY motifs and NEDD4L WW domains function in HIV-1 release” (The Journal of Biological Chemistry, 2021).
Peptide text beside a SMILES is read from it. * marks the point of attachment. X1 = O=C1OC2(c3cc(F)c(O)cc3Oc3cc(O)c(F)cc32)c2ccc(N3C(=O)CC(*)C3=O)cc21

Target: T1, NEDD4L WW3 (Homo sapiens, UniProt Q96PU5)
T1 construct: -WW3(497 -530); GST (N, cleaved yes); made in house; host or cells: E. coli Rosetta-pLysS
Assay: Fluorescence polarization (FP) anisotropy binding of labeled AMOT PPxY peptides to recombinant NEDD4L WW3 domain
Details: for fold reduction of NEDD4L WW3 binding affinity relative to the wt peptide: FP Kd ratio mutant / wt
Method: Each dilution series was performed at least in triplicate. […] The mean Kd values are reported as mean ± SEM.

T1 sequence (Q96PU5 497-530 limits assumed): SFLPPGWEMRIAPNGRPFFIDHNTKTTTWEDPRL

SMILES	fold reduction of NEDD4L WW3 binding affinity relative to the wt peptide	fold tighter binding than any other pairwise AMOT PPxY-NEDD4L WW interaction (PPxY1-WW3 compared with the 11 other pairs of Fig. 3E)
CSCC[C@H](NC(=O)CNC(=O)[C@H](CCCCN)NC(=O)[C@H](Cc1ccccc1)NC(=O)[C@@H]1CCCN1C(=O)[C@H](Cc1ccc(O)cc1)NC(=O)[C@H](CCC(=O)O)NC(=O)[C@@H]1CCCN1C(=O)[C@H](CC(C)C)NC(=O)[C@@H]1CCCN1C(=O)CNC(=O)[C@H](CCCNC(=N)N)NC(=O)[C@H](Cc1c[nH]cn1)NC(=O)[C@H](CCC(=O)O)NC(=O)[C@H](CCSC)NC(=O)[C@@H](N)CSC1CC(=O)N(c2ccc3c(c2)C(=O)OC32c3cc(F)c(O)cc3Oc3cc(O)c(F)cc32)C1=O)C(N)=O (stereo partly shown) [(P/L)PPxY2] (H-C(X1)MEHRGPLPEYPFKGM-NH2; N-terminus and C-terminus assumed)	2.8 fold	–
CSCC[C@H](NC(=O)[C@@H](N)CSC1CC(=O)N(c2ccc3c(c2)C(=O)OC32c3cc(F)c(O)cc3Oc3cc(O)c(F)cc32)C1=O)C(=O)N[C@@H](CCC(N)=O)C(=O)N[C@@H](CC(N)=O)C(=O)N[C@@H](CC(N)=O)C(=O)N[C@@H](CCC(=O)O)C(=O)N[C@@H](CCC(=O)O)C(=O)N[C@@H](CC(C)C)C(=O)N1CCC[C@H]1C(=O)N[C@H](C(=O)N[C@@H](Cc1ccc(O)cc1)C(=O)N[C@@H](CCC(=O)O)C(=O)N[C@@H](CCC(=O)O)C(=O)N[C@@H](CCCCN)C(=O)N[C@@H](CCCCN)C(=O)N[C@H](C(N)=O)C(C)C)[C@@H](C)O (stereo partly shown) [A112K] (H-C(X1)MQNNEELPTYEEKKV-NH2; N-terminus and C-terminus assumed)	8 fold	–
CSCC[C@H](NC(=O)[C@@H](N)CSC1CC(=O)N(c2ccc3c(c2)C(=O)OC32c3cc(F)c(O)cc3Oc3cc(O)c(F)cc32)C1=O)C(=O)N[C@@H](CCC(N)=O)C(=O)N[C@@H](CC(N)=O)C(=O)N[C@@H](CC(N)=O)C(=O)N[C@@H](CCCCN)C(=O)N[C@@H](CCCCN)C(=O)N[C@@H](CC(C)C)C(=O)N1CCC[C@H]1C(=O)N[C@H](C(=O)N[C@@H](Cc1ccc(O)cc1)C(=O)N[C@@H](CCC(=O)O)C(=O)N[C@@H](CCC(=O)O)C(=O)N[C@@H](C)C(=O)N[C@@H](CCCCN)C(=O)N[C@H](C(N)=O)C(C)C)[C@@H](C)O (stereo partly shown) [E104K/E105K] (H-C(X1)MQNNKKLPTYEEAKV-NH2; N-terminus and C-terminus assumed)	6 fold	–
CSCC[C@H](NC(=O)[C@@H](N)CSC1CC(=O)N(c2ccc3c(c2)C(=O)OC32c3cc(F)c(O)cc3Oc3cc(O)c(F)cc32)C1=O)C(=O)N[C@@H](CCC(N)=O)C(=O)N[C@@H](CC(N)=O)C(=O)N[C@@H](CC(N)=O)C(=O)N[C@@H](CCC(=O)O)C(=O)N[C@@H](CCC(=O)O)C(=O)N[C@@H](CC(C)C)C(=O)N1CCC[C@H]1C(=O)N[C@H](C(=O)N[C@@H](Cc1ccc(O)cc1)C(=O)N[C@@H](CCC(=O)O)C(=O)N[C@@H](CCC(=O)O)C(=O)N[C@@H](C)C(=O)N[C@@H](CCCCN)C(=O)N[C@H](C(N)=O)C(C)C)[C@@H](C)O (stereo partly shown) [PPxY1] (H-C(X1)MQNNEELPTYEEAKV-NH2; N-terminus and C-terminus assumed)	–	more than 5 fold
